Entries after “also recorded” stand apart in the source; their conditions may differ.
Key:
[1] = system: endogenous reverse transcriptase (RT) activity in platelets; assay: Reverse transcriptase activity assay in platelet lysates (reverse transcription of MS2 phage RNA); type: biochemical, human; details: platelet lysates incubated with compound at 37° C. for 120 minutes; nevirapine 100, 500, 750 μM; 9-cis retinoic acid 0.1, 1, 10 μM
Description: Reverse Transcriptase Activity Assay (FIGS. 10A-C and FIGS. 11A-C). The reverse transcriptase (RT) activity assay was performed as previously described^22 with minor modifications. […] MS2 phage RNA was subsequently added to the lysates and reverse transcription of MS2 phage RNA by platelet lysates or a commercial RT (Thermoscript, Invitrogen, Eugene, Oreg.) was determined.

[2] = system: human platelets; assay: Surface P-selectin expression of cultured platelets with new cell bodies after agonist activation (immunostaining); type: cell-based; details: after 6 hours culture; ADP (2 μM) or thrombin (0.005 U/ml) for 1 minute
Text: For protein localization studies by immunocytochemistry (ICC), fixed cells were stained with antibodies directed against αIIbβ3 and Annexin V (ab34407; Abeam, Cambridge, Mass.), P-selectin (sc-6941; Santa Cruz Biotechnology, Santa Cruz, Calif.), β-tubulin (T-5293; Sigma), or mitofilin (MSM02; MitoSciences, Eugene, Oreg.). Specificity of the staining was confirmed for each antibody with isotype-matched nonimmune IgG. The cells were counterstained with either Alexa Fluor® 488 phalloidin or Alexa Fluor® 555 WGA conjugate as described in the previous paragraph. To assess mitochondrial function, use was made of MitoTracker® Red CM-H2XRos (M7513; Invitrogen), a reduced probe that fluoresces when it enters actively respiring mitochondria. For these studies, MitoTracker® (1 μM) was incubated with the live platelets one hour before the end of the experiment.

[3] = system: human platelets; assay: Platelet morphology: formation of extensions with new cell bodies (progeny) in suspension-cultured platelets; type: cell-based; details: platelets 1×10^5 per mm^3 cultured in suspension for 6 hours; nevirapine 750 μM; 9-cis retinoic acid 1 and 10 μM
Description: Platelet Isolation and Culture. Whole blood was centrifuged at 150×g for 20 minutes to obtain platelet-rich plasma (PRP). Residual leukocytes were removed from the PRP by CD45+ bead selection as previously described^1, 6. The negatively selected platelets were resuspended in serum-free M199 culture medium at 37° C. in a humidified 5% CO2 atmosphere. For select studies, platelets were resuspended in fresh human plasma. […] Unless otherwise indicated, the washed platelets were cultured in suspension using round-bottom polypropylene tubes (Becton Dickinson, Franklin Lakes, N.J.). Platelets were suspended at 100,000/μl.
Platelet Morphology and Protein Expression. Freshly-isolated or aged platelets were either fixed immediately to assess baseline morphology, or after 6 hours of suspension culture as described above.
For studies that used fixed platelets, paraformaldehyde (4%) was added directly to the suspension culture as previously described^1, 6, 26 in order to maintain the native morphology of the cells. The fixed platelets (10,000 total for each sample) were subsequently layered onto coverslips coated with Vectabond™ (Vector Laboratories, Burlingame, Calif.) using a cytospin centrifuge (Shandon Cytospin, Thermo Fisher Scientific, Waltham, Mass.). To determine the number of platelets with extensions and distinct cell bodies, fixed cells were counterstained with Alexa Fluor® 488 phalloidin (A12379; Invitrogen, Eugene, Oreg.), a high-affinity probe for F-actin, and/or an Alexa Fluor® 555 (W32464; Invitrogen) conjugate of wheat germ agglutinin (WGA). Three random fields were captured from each independent experiment and at least 500 total cells, which encompassed individual platelets with two or more distinct cell bodies, were counted (FIG. 1H and FIG. 1I).

Q: For `CC1=C(/C=C/C(C)=C\C=C\C(C)=C\C(=O)O)C(C)(C)CCC1` [9-cis retinoic acid], which “RT activity in platelets” value [1] is on record?
A: inhibited

Q: `Nc1ncnc2c1ncn2[C@@H]1O[C@H](COP(=O)(O)OP(=O)(O)O)[C@@H](O)[C@H]1O` [ADP] was tested. Which “surface P-selectin expression in platelets that developed new cell bodies” value [2] did it give?
A: markedly increased

Q: For `Cc1ccnc2c1NC(=O)c1cccnc1N2C1CC1` [nevirapine], which “RT activity in platelets” value [1] is on record?
A: inhibited

Q: For cytocholasin D, which “number of newly-formed cell bodies extending from cultured platelets / progeny formation” value [3] is on record?
A: inhibited

Q: Which “number of newly-formed cell bodies extending from cultured platelets / progeny formation” value [3] does the source give for thrombin here?
A: did not develop new cells bodies; also recorded: blocks

Q: What about the “surface P-selectin expression in platelets that developed new cell bodies” value [2] of the same compound?
A: markedly increased

Q: With “thrombopoietin: key regulator of bone marrow-dependent thrombopoiesis” as the compound, how does the “number of newly-formed cell bodies extending from cultured platelets / progeny formation” value [3] read?
A: no effect
